Data as given in PMC10247784, “Physiological activation of human and mouse bitter taste receptors by bile acids” (Communications Biology, 2023).
Several values for one entry are separate records, joined by “and”; a condition that tells them apart may be missing. Equal entries are not always repeated.

Molecular target: T1, human TAS2R14 (Homo sapiens, UniProt Q9NYV8)
T1 construct: expressed in transfected cells; host or cells: HEK293T-Gα16gust44
T1 sequence (Q9NYV8 1-317): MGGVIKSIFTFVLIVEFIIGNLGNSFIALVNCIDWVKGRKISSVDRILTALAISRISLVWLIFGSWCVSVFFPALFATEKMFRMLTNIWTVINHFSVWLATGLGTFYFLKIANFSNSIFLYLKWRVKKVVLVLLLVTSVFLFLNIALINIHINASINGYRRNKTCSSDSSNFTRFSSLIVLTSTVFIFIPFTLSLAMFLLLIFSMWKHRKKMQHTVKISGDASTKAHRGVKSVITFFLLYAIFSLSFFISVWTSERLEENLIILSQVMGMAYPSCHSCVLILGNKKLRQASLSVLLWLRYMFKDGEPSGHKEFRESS
Test: Calcium imaging assay (FLIPR), HEK293T-Gα16gust44 cells transfected with human TAS2R14
Assay type: cell-based
Conditions: for RLU: TAS2R14 trace
Method in brief: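 Fluo-4 calcium responses; ΔF/F corrected for mock transfection and buffer control; triplicate independent dose-response runs; p < 0.01 threshold.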

With `C[C@H](CCC(=O)NCCS(=O)(=O)O)[C@H]1CC[C@H]2[C@@H]3[C@H](O)C[C@@H]4C[C@H](O)CC[C@]4(C)[C@H]3C[C@H](O)[C@]12C` [Taurocholic Acid, taurocholic acid] the “Efficacy = maximal amplitude (ΔF/F)” value (TAS2R14, bile acids, mean) was 0.2246, the “Efficacy (maximal amplitude ΔF/F), individual data points” value (TAS2R14, bile acids, single replicates, listed as TCA) was 0.1896 and 0.238 and 0.2462 and the “Δ F/F” value (TAS2R14, conc. 0,01 mM) was -0.01734. For the same compound, the “Δ F/F” value (TAS2R14, conc. 0,1 mM) was -0.007315, the “Δ F/F” value (TAS2R14, conc. 0,03 mM) was -0.005139 and the “Δ F/F” value (TAS2R14, conc. 0,3 mM) was 0.03332. The “Δ F/F” value (TAS2R14, conc. 0,001 mM) was -0.02529, the “Δ F/F” value (TAS2R14, conc. 1 mM) was 0.2246 and the “Δ F/F” value (TAS2R14, conc. 0,003 mM) was -0.01812. The RLU (Time (s) 0) was 0 RLU, the RLU (Time (s) 2 (Taurocholic Acid 2.016)) was 15.4574 RLU and the RLU (Time (s) 4 (Taurocholic Acid 4.016)) was -13.3747 RLU. For the same compound, the RLU (Time (s) 6 (Taurocholic Acid 6.016)) was -38.8354 RLU, the RLU (Time (s) 8 (Taurocholic Acid 8.016)) was -33.6332 RLU and the RLU (Time (s) 12 (Taurocholic Acid 12.016)) was -53.4595 RLU. It also gave an RLU (Time (s) 14 (Taurocholic Acid 14.016)) of -55.3521 RLU, an RLU (Time (s) 16 (Taurocholic Acid 16.016)) of -65.1913 RLU and an RLU (Time (s) 18 (Taurocholic Acid 18.016)) of -43.8232 RLU. For the same compound, the RLU (Time (s) 18.797 (Chenodeoxycholic Acid 18.765)) was -59.7397 RLU, the RLU (Time (s) 20.797 (Chenodeoxycholic Acid 20.781)) was -48.6104 RLU and the RLU (Time (s) 22.797 (Chenodeoxycholic Acid 22.781)) was -37.2936 RLU. It also gave an RLU (Time (s) 24.797 (Chenodeoxycholic Acid 24.781)) of -25.1873 RLU, an RLU (Time (s) 26.797 (Chenodeoxycholic Acid 26.781)) of -30.6749 RLU and an RLU (Time (s) 28.797 (Chenodeoxycholic Acid 28.781)) of 4.524 RLU. It also gave an RLU (Time (s) 30.797 (Chenodeoxycholic Acid 30.781)) of -8.18 RLU, an RLU (Time (s) 32.797 (Chenodeoxycholic Acid 32.781)) of 30.1537 RLU and an RLU (Time (s) 34.797 (Chenodeoxycholic Acid 34.781)) of 70.0865 RLU. For the same compound, the RLU (Time (s) 36.797 (Chenodeoxycholic Acid 36.781)) was 98.6425 RLU, the RLU (Time (s) 38.797 (Chenodeoxycholic Acid 38.781)) was 134.228 RLU and the RLU (Time (s) 40.797 (Chenodeoxycholic Acid 40.781)) was 192.709 RLU. The RLU (Time (s) 42.797 (Chenodeoxycholic Acid 42.781)) was 232.913 RLU, the RLU (Time (s) 44.797 (Chenodeoxycholic Acid 44.781)) was 243.453 RLU and the RLU (Time (s) 46.797 (Chenodeoxycholic Acid 46.781)) was 297.017 RLU. It also gave an RLU (Time (s) 48.797 (Chenodeoxycholic Acid 48.781)) of 343.953 RLU, an RLU (Time (s) 50.797 (Chenodeoxycholic Acid 50.781)) of 379.622 RLU and an RLU (Time (s) 52.797 (Chenodeoxycholic Acid 52.781)) of 398.833 RLU. For the same compound, the RLU (Time (s) 54.797 (Chenodeoxycholic Acid 54.781)) was 459.728 RLU, the RLU (Time (s) 56.797 (Chenodeoxycholic Acid 56.781)) was 470.92 RLU and the RLU (Time (s) 58.797 (Chenodeoxycholic Acid 58.781)) was 515.163 RLU. It also gave an RLU (Time (s) 60.797 (Chenodeoxycholic Acid 60.781)) of 529.36 RLU, an RLU (Time (s) 62.797 (Chenodeoxycholic Acid 62.781)) of 543.404 RLU and an RLU (Time (s) 64.797 (Chenodeoxycholic Acid 64.781)) of 572.542 RLU. For the same compound, the RLU (Time (s) 66.797 (Chenodeoxycholic Acid 66.781)) was 570.299 RLU, the RLU (Time (s) 68.797 (Chenodeoxycholic Acid 68.781)) was 602.865 RLU and the RLU (Time (s) 70.797 (Chenodeoxycholic Acid 70.781)) was 609.474 RLU. It also gave an RLU (Time (s) 72.797 (Chenodeoxycholic Acid 72.781)) of 663.572 RLU, an RLU (Time (s) 74.797 (Chenodeoxycholic Acid 74.781)) of 688.158 RLU and an RLU (Time (s) 76.797 (Chenodeoxycholic Acid 76.781)) of 696.58 RLU. For the same compound, the RLU (Time (s) 78.797 (Chenodeoxycholic Acid 78.781)) was 702.313 RLU, the RLU (Time (s) 80.797 (Chenodeoxycholic Acid 80.781)) was 724.676 RLU and the RLU (Time (s) 82.797 (Chenodeoxycholic Acid 82.781)) was 729.222 RLU. It also gave an RLU (Time (s) 84.797 (Chenodeoxycholic Acid 84.781)) of 755.668 RLU, an RLU (Time (s) 86.797 (Chenodeoxycholic Acid 86.781)) of 758.133 RLU and an RLU (Time (s) 88.797 (Chenodeoxycholic Acid 88.781)) of 801.791 RLU. The RLU (Time (s) 90.797 (Chenodeoxycholic Acid 90.781)) was 813.667 RLU, the RLU (Time (s) 92.797 (Chenodeoxycholic Acid 92.781)) was 823.99 RLU and the RLU (Time (s) 94.797 (Chenodeoxycholic Acid 94.781)) was 849.724 RLU. The RLU (Time (s) 96.797 (Chenodeoxycholic Acid 96.781)) was 840.46 RLU, the RLU (Time (s) 98.797 (Chenodeoxycholic Acid 98.781)) was 832.423 RLU and the RLU (Time (s) 100.797 (Chenodeoxycholic Acid 100.781)) was 870.888 RLU. The RLU (Time (s) 102.797 (Chenodeoxycholic Acid 102.781)) was 887.784 RLU, the RLU (Time (s) 104.797 (Chenodeoxycholic Acid 104.781)) was 895.487 RLU and the RLU (Time (s) 106.797 (Chenodeoxycholic Acid 106.781)) was 886.141 RLU. For the same compound, the RLU (Time (s) 108.797 (Chenodeoxycholic Acid 108.781)) was 931.883 RLU, the RLU (Time (s) 110.797 (Chenodeoxycholic Acid 110.781)) was 935.64 RLU and the RLU (Time (s) 112.797 (Chenodeoxycholic Acid 112.781)) was 971.794 RLU. The RLU (Time (s) 114.797 (Chenodeoxycholic Acid 114.781)) was 962.409 RLU, the RLU (Time (s) 116.797 (Chenodeoxycholic Acid 116.781)) was 993.706 RLU and the RLU (Time (s) 118.797 (Chenodeoxycholic Acid 118.781)) was 1000.54 RLU. The RLU (Time (s) 120.797 (Chenodeoxycholic Acid 120.781)) was 1025.82 RLU, the RLU (Time (s) 122.797 (Chenodeoxycholic Acid 122.781)) was 1039.5 RLU and the RLU (Time (s) 124.797 (Chenodeoxycholic Acid 124.781)) was 1041.39 RLU. The RLU (Time (s) 126.797 (Chenodeoxycholic Acid 126.781)) was 1050.25 RLU, the RLU (Time (s) 128.797 (Chenodeoxycholic Acid 128.781)) was 1043.78 RLU and the RLU (Time (s) 130.797 (Chenodeoxycholic Acid 130.781)) was 1042.75 RLU. The RLU (Time (s) 132.797 (Chenodeoxycholic Acid 132.781)) was 1039.88 RLU, the RLU (Time (s) 134.797 (Chenodeoxycholic Acid 134.781)) was 1050.77 RLU and the RLU (Time (s) 136.797 (Chenodeoxycholic Acid 136.781)) was 1036.12 RLU. For the same compound, the RLU (Time (s) 137.562 (Taurocholic Acid 137.563, Chenodeoxycholic Acid 137.546)) was 1048.18 RLU, the RLU (Time (s) 143.578 (Taurocholic Acid 143.563, Chenodeoxycholic Acid 143.546)) was 1008.4 RLU and the RLU (Time (s) 149.578 (Taurocholic Acid 149.563, Chenodeoxycholic Acid 149.546)) was 998.739 RLU. For the same compound, the RLU (Time (s) 155.578 (Taurocholic Acid 155.563, Chenodeoxycholic Acid 155.546)) was 977.028 RLU, the RLU (Time (s) 161.578 (Taurocholic Acid 161.563, Chenodeoxycholic Acid 161.546)) was 958.674 RLU and the RLU (Time (s) 167.578 (Taurocholic Acid 167.563, Chenodeoxycholic Acid 167.546)) was 918.668 RLU. For the same compound, the RLU (Time (s) 173.578 (Taurocholic Acid 173.563, Chenodeoxycholic Acid 173.546)) was 888.356 RLU, the RLU (Time (s) 179.578 (Taurocholic Acid 179.563, Chenodeoxycholic Acid 179.546)) was 847.479 RLU and the RLU (Time (s) 191.578 (Taurocholic Acid 191.563, Chenodeoxycholic Acid 191.546)) was 745.479 RLU. The RLU (Time (s) 197.578 (Taurocholic Acid 197.563, Chenodeoxycholic Acid 197.546)) was 696.127 RLU, the RLU (Time (s) 209.578 (Taurocholic Acid 209.563, Chenodeoxycholic Acid 209.546)) was 643.487 RLU and the RLU (Time (s) 221.578 (Taurocholic Acid 221.563, Chenodeoxycholic Acid 221.546)) was 526.781 RLU. For the same compound, the RLU (Time (s) 233.578 (Taurocholic Acid 233.563, Chenodeoxycholic Acid 233.546)) was 416.225 RLU, the RLU (Time (s) 239.578 (Taurocholic Acid 239.563, Chenodeoxycholic Acid 239.546)) was 342.018 RLU and the RLU (Time (s) 245.578 (Taurocholic Acid 245.563, Chenodeoxycholic Acid 245.546)) was 303.535 RLU. The RLU (Time (s) 293.578 (Taurocholic Acid 293.563, Chenodeoxycholic Acid 293.546)) was 127.213 RLU, the RLU (Time (s) 299.578 (Taurocholic Acid 299.563, Chenodeoxycholic Acid 299.546)) was 108.412 RLU and the RLU (Time (s) 305.578 (Taurocholic Acid 305.563, Chenodeoxycholic Acid 305.546)) was 98.929 RLU. It also gave an RLU (Time (s) 311.578 (Taurocholic Acid 311.563, Chenodeoxycholic Acid 311.546)) of 88.6159 RLU, an RLU (Time (s) 317.578 (Taurocholic Acid 317.563, Chenodeoxycholic Acid 317.546)) of 79.3923 RLU and an RLU (Time (s) 323.578 (Taurocholic Acid 323.563, Chenodeoxycholic Acid 323.546)) of 80.4704 RLU. The RLU (Time (s) 329.578 (Taurocholic Acid 329.563, Chenodeoxycholic Acid 329.546)) was 68.4196 RLU, the RLU (Time (s) 335.578 (Taurocholic Acid 335.563, Chenodeoxycholic Acid 335.546)) was 88.4103 RLU and the RLU (Time (s) 341.578 (Taurocholic Acid 341.563, Chenodeoxycholic Acid 341.546)) was 53.5929 RLU. The RLU (Time (s) 347.578 (Taurocholic Acid 347.563, Chenodeoxycholic Acid 347.546)) was 48.7046 RLU, the RLU (Time (s) 353.578 (Taurocholic Acid 353.563, Chenodeoxycholic Acid 353.546)) was 68.797 RLU and the RLU (Time (s) 359.578 (Taurocholic Acid 359.563, Chenodeoxycholic Acid 359.546)) was 47.7517 RLU. The “Activation threshold concentration TAS2R14” value (lowest concentration with significantly increased fluorescence vs empty vector (p < 0.01)) was 300 µM.
